In US20140288044A1, “COMPOSITIONS AND THERAPEUTIC USES OF IKK-RELATED KINASE EPSILON AND TANKBINDING KINASE 1 INHIBITORS” (Alzheimer's Institute of America, Inc., priority 2011, published 2014):
Where two headings read alike, the source gives them in different places.

Experiments:
[1] = target: T1, IKKε (Homo sapiens, UniProt Q14164); assay: In-vitro IKKε kinase assay (radiolabelled ATP, filterplate); type: biochemical
T1 construct: His-tag (in-house Sf9 preparation) or GST-tag (purchased Invitrogen preparation); these are alternatives, not both on one protein; host or cells: Sf9 cells
T1 sequence (Q14164 1-716): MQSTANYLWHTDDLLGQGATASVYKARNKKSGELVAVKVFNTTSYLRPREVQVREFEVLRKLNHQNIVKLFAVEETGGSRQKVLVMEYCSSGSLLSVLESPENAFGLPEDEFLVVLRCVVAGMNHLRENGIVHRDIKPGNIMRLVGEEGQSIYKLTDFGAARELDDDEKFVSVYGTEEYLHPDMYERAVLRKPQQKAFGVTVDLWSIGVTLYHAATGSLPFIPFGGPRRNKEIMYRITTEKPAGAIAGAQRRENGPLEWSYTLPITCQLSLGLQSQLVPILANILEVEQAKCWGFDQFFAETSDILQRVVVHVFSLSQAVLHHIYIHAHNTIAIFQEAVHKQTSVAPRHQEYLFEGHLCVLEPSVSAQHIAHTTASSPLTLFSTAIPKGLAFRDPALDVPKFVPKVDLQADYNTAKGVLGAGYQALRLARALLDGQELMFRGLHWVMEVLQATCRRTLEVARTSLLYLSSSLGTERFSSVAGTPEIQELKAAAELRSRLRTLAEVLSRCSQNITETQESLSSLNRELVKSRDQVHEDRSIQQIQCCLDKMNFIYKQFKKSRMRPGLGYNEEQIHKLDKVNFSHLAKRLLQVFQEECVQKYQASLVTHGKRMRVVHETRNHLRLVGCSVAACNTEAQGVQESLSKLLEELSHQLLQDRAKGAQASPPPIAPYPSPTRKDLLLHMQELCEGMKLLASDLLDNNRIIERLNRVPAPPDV
Summary of the method: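 His-tagged IKKε from Sf9 cells or GST-tagged IKKε, with myelin basic protein, casein or dephosphorylated casein as substrate and 32 μM ATP (2× Km) plus [γ^33]ATP. "Normal" assay used 0.1 μg/ml enzyme; "sensitized" used 0.015 μg/ml with dephosphorylated casein only. Stopped after 30–45 min with phosphoric acid; P-81 filter counts normalized to DMSO after background subtraction.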

[2] = tested on: IKKε-mediated phosphorylation of IRF3; assay: ELISA for in-situ phosphorylation of IRF3 (phospho-Ser396) in HEK293T cells cotransfected with IRF3 and IKKε; type: cell-based; settings: Homo sapiens, HEK-293T, 20 h, HEK293T cells, 20 hours, read-out: IC50, in-situ IKKε-mediated phosphorylation of IRF3
Method: HEK293T cells were cotransfected in a 10-cm dish with IRF3 and IKKε expression plasmids using Lipofectamine 2000 (Invitrogen, Carlsbad, Calif.). The following day, cells were replated at 20,000 per well in 96-well plates and treated with test compounds (compounds according to Formulae I and/or II) for 20 hours. Cell lysates were prepared and analyzed using an ELISA for phospho-Ser396 (anti-IRF3 capture antibody, Santa Cruz Biotechnology, Inc., Santa Cruz, Calif.; anti-p-Ser396 IRF3 detection antibody, Cell Signaling, Danvers, Mass.). pIRF3 levels in compound treated cells were normalized to DMSO treated cells (no compound). Cell viability was assayed in a parallel set of plates to monitor cytotoxic effects of the test compounds (CellTiter-Glo, Promega, Inc., Madison, Wis.). TBK1 activity was tested by Western blotting using a phospho-specific IRF7 antibody. Similar to above, HEK293T cells were transfected with IRF7 and TBK1 expression plasmids. Cells were seeded in 12-well plates at 150,000 per well and treated overnight with test compounds. Protein lysates were prepared and processed for Western blotting followed by detection using a phosphor-Ser477/Ser479 IRF7 antibody (BD Biosciences, San Jose, Calif.)

[3] = "sensitized" assay, read-out: IC50, inhibition of the kinase activity of IKKε
[4] = in-vitro IKKε kinase inhibition assays, given as 0.005 μM (5 nM), read-out: IKKε kinase inhibitory activity (IC50 value)
[5] = range given from about 1 μM to about 250 nM

Row | IC50 [1, 4] [nM] | IC50 [2, 5] [nM] | IC50 [2] [nM] | Structure (SMILES) | IC50 [1, 3] [nM]
1 | < 5 | 250 to 1000 |  | CCN(CC)c1ccc(Nc2nccc(-c3ccc(NC(=O)C4CC4)c(C#N)c3)n2)cn1 [Example Compound 139, N-[2-Cyano-4-(2-{[6-(diethylamino)pyridin-3-yl]amino}pyrimidin-4-yl)phenyl]cyclopropanecarboxamide] | < 5
2 | < 5 |  | 100 to 250 | N#Cc1cc(-c2ccnc(Nc3ccnc(N4CC(O)C4)c3)n2)ccc1OC1CCOCC1 [Example Compound 41, 5-(2-{[2-(3-Hydroxyazetidin-1-yl)pyridin-4-yl]amino}pyrimidin-4-yl)-2-(tetrahydro-2H-pyran-4-yloxy)benzonitrile] | < 5
3 | < 5 |  | 1000 to 5000 | Cn1cc(-c2cc(Nc3nccc(-c4ccc(O[C@@H]5CCN(C(=O)CO)C5)c(C#N)c4)n3)ccn2)cn1 [Example Compound 126, 2-{[(3R)-1-(Hydroxyacetyl)pyrrolidin-3-yl]oxy}-5-(2-{[2-(1-methyl-1H-pyrazol-4-yl)pyridin-4-yl]amino}pyrimidin-4-yl)benzonitrile] | 
4 | < 5 |  | 100 to 250 | N#Cc1cc(-c2ccnc(Nc3ccnc(-c4cn[nH]c4)c3)n2)ccc1OC1CCOCC1 [Example Compound 83, 5-(2-{[2-(1H-Pyrazol-4-yl)pyridin-4-yl]amino}pyrimidin-4-yl)-2-(tetrahydro-2H-pyran-4-yloxy)benzonitrile] | < 5
5 | < 5 |  | 100 to 250 | CN(CCS(C)(=O)=O)Cc1ccc(Nc2nccc(-c3ccc(OC4CCOCC4)c(C#N)c3)n2)cn1 [Example Compound 54, 5-(2-{[6-({Methyl[2-(methylsulfonyl)ethyl]amino}methyl)pyridin-3-yl]amino}pyrimidin-4-yl)-2-(tetrahydro-2H-pyran-4-yloxy)benzonitrile] | 
6 |  |  | 100 to 250 | CC(c1ncc(Nc2nccc(-c3ccc(OC4CCOCC4)c(C#N)c3)n2)cc1F)N1CCOCC1 (stereo not shown) [Example Compound 251] | < 5
7 | < 5 | 250 to 1000 |  | CCOc1ccc(Nc2nccc(-c3ccc(OC4CCOCC4)c(C#N)c3)n2)cn1 [Example Compound 8, 5-{2-[(6-Ethoxypyridin-3-yl)amino]pyrimidin-4-yl}-2-(tetrahydro-2H-pyran-4-yloxy)benzonitrile] | < 5
8 | < 5 |  | < 100 | Cn1cc(-c2cc(Nc3nccc(-c4ccc(OC5CCOCC5)c(C#N)c4)n3)ccn2)cn1 [Example Compound 82, 5-(2-{[2-(1-Methyl-1H-pyrazol-4-yl)pyridin-4-yl]amino}pyrimidin-4-yl)-2-(tetrahydro-2H-pyran-4-yloxy)benzonitrile] | < 5
9 |  | 250 to 1000 |  | CN(CCS(C)(=O)=O)Cc1ccc(Nc2nccc(-c3ccc(OC4CCOCC4)c(C#N)c3)n2)cn1 [Example Compound 207, 5-(2-{[6-({Methyl[2-(methylsulfonyl)ethyl]amino}methyl)pyridin-3-yl]amino}pyrimidin-4-yl)-2-(tetrahydro-2H-pyran-4-yloxy)benzonitrile] | < 5
10 | < 5 | 250 to 1000 |  | N#Cc1cc(-c2ccnc(Nc3ccc(N4CCOCC4)nn3)n2)ccc1OC1CCOCC1 [Example Compound 88, 5-(2-{[6-(Morpholin-4-yl)pyridazin-3-yl]amino}pyrimidin-4-yl)-2-(tetrahydro-2H-pyran-4-yloxy)benzonitrile] | < 5
11 | < 5 |  | 100 to 250 | COC1CN(C(=O)c2ncc(Nc3nccc(-c4ccc(OC5CCOCC5)c(C#N)c4)n3)n2C)C1 [Example Compound 102, 5-[2-({2-[(3-Methoxyazetidin-1-yl)carbonyl]-1-methyl-1H-imidazol-5-yl}amino)pyrimidin-4-yl]-2-(tetrahydro-2H-pyran-4-yloxy)benzonitrile] | < 5
12 | < 5 |  | < 100 | N#Cc1cc(-c2ccnc(Nc3ccnc(CN4CCC(F)(F)C4)c3)n2)ccc1OC1CCOCC1 [Example Compound 71, 5-[2-({2-[(3,3-Difluoropyrrolidin-1-yl)methyl]pyridin-4-yl}amino)pyrimidin-4-yl]-2-(tetrahydro-2H-pyran-4-yloxy)benzonitrile] | 
13 | < 5 |  | 1000 to 5000 | Cc1ccc(Nc2nccc(-c3ccc(OC4CCN(C(=O)[C@H](C)O)CC4)c(C#N)c3)n2)cn1 [Example Compound 128, 2-({1-[(2S)-2-Hydroxypropanoyl]piperidin-4-yl}oxy)-5-{2-[(6-methylpyridin-3-yl)amino]pyrimidin-4-yl}benzonitrile] | < 5
14 |  |  | < 100 | CN(Cc1ccc(Nc2nccc(-c3ccc(OC4CCOCC4)c(C#N)c3)n2)cn1)S(C)(=O)=O [Example Compound 206, N-{[5-({4-[3-Cyano-4-(tetrahydro-2H-pyran-4-yloxy)phenyl]pyrimidin-2-yl}amino)pyridin-2-yl]methyl}-N-methylmethanesulfonamide] | < 5
15 | < 5 | 250 to 1000 |  | CN(Cc1ccc(Nc2nccc(-c3ccc(OC4CCOCC4)c(C#N)c3)n2)cn1)C(=O)C1(O)CC1 [Example Compound 59, N-{[5-({4-[3-Cyano-4-(tetrahydro-2H-pyran-4-yloxy)phenyl]pyrimidin-2-yl}amino)pyridin-2-yl]methyl}-1-hydroxy-N-methylcyclopropanecarboxamide] | 
16 | < 5 |  | < 100 | Cn1cc(-c2ccc(Nc3nccc(-c4ccc(OC5CCOCC5)c(C#N)c4)n3)cn2)cn1 [Example Compound 77, 5-(2-{[6-(1-Methyl-1H-pyrazol-4-yl)pyridin-3-yl]amino}pyrimidin-4-yl)-2-(tetrahydro-2H-pyran-4-yloxy)benzonitrile] | 
17 | < 5 |  | 100 to 250 | CC(c1ccc(Nc2nccc(-c3ccc(OC4CCOCC4)c(C#N)c3)n2)cn1)N1CC(O)C1 (stereo not shown) [Example Compound 63, 5-[2-({6-[1-(3-Hydroxyazetidin-1-yl)ethyl]pyridin-3-yl}amino)pyrimidin-4-yl]-2-(tetrahydro-2H-pyran-4-yloxy)benzonitrile] | 
18 |  |  | 1000 to 5000 | N#Cc1cc(-c2ccnc(Nc3ccnc(N4CC(O)C4)c3)n2)ccc1OC1CCN(C(=O)CO)CC1 [Example Compound 240, 2-{[1-(Hydroxyacetyl)piperidin-4-yl]oxy}-5-(2-{[2-(3-hydroxyazetidin-1-yl)pyridin-4-yl]amino}pyrimidin-4-yl)benzonitrile] | < 5
19 | < 5 |  | 100 to 250 | N#Cc1cc(-c2ccnc(Nc3ccc(N4CCOCC4)nc3)n2)ccc1O[C@@H]1CCN(C(=O)CO)C1 [Example Compound 119, 2-{[(3R)-1-(Hydroxyacetyl)pyrrolidin-3-yl]oxy}-5-(2-{[6-(morpholin-4-yl)pyridin-3-yl]amino}pyrimidin-4-yl)benzonitrile] | < 5
20 |  |  | < 100 | CC(=O)c1ccc(Nc2nccc(-c3ccc(OC4CCOCC4)c(C#N)c3)n2)cn1 [Example Compound 212, 5-{2-[(6-Acetylpyridin-3-yl)amino]pyrimidin-4-yl}-2-(tetrahydro-2H-pyran-4-yloxy)benzonitrile] | < 5
21 | < 5 |  | 100 to 250 | N#Cc1cc(-c2ccnc(Nc3ccc(-n4cncn4)nc3)n2)ccc1OC1CCOCC1 [Example Compound 76, 2-(Tetrahydro-2H-pyran-4-yloxy)-5-(2-{[6-(1H-1,2,4-triazol-1-yl)pyridin-3-yl]amino}pyrimidin-4-yl)benzonitrile] | < 5
